Experimental data as given in PMC6017115, “Inhibitory Effect of Sauchinone on UDP-Glucuronosyltransferase (UGT) 2B7 Activity” (Molecules : A Journal of Synthetic Chemistry and Natural …, 2018).
pIC50, pKi: −log10 of the molar value.

How the values were obtained:
Assay type in all cases: in vitro ADME
UGT1A4 = target: T1, UGT1A4 (Homo sapiens, UniProt P22310); assay: Inhibition of UGT1A4 (trifluoperazine glucuronidation) in human liver microsomes; conditions: human liver microsomes
T1 construct: The reaction mixture containing 0.25 mg/mL protein of HLM; tissue Corning Life Sciences 452156; host or cells: pooled human liver microsomes, 50 donors
T1 sequence (P22310 29-534): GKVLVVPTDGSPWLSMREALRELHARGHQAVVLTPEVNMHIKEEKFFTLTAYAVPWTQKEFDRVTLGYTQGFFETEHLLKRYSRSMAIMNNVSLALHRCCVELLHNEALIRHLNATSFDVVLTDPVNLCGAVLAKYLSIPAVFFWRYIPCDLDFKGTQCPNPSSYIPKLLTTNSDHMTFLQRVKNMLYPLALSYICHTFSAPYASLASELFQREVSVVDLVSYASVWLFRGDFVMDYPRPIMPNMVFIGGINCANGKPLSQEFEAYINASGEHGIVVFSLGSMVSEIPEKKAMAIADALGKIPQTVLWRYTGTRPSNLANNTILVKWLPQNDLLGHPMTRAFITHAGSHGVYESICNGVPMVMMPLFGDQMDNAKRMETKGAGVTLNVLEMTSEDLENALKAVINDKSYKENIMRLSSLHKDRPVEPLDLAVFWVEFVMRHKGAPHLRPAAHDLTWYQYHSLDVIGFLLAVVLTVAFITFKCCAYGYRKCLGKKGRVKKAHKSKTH
Method: (§1) Their IC50 values were compared to that of sauchinone. […] UGT-mediated activities in the presence of sauchinone as an inhibitor were expressed as percentages of corresponding control values (in absence of sauchinone). From percentages of control activity versus inhibitor concentrations, a sigmoid shaped curve was fitted to the data and IC50 as an enzyme inhibition parameter was calculated by fitting the Hill equation to the data using GraphPad Prism 5 (GraphPad Software Inc., San Diego, CA, USA).

UGT1A9 = target: T2, UGT1A9 (Homo sapiens, UniProt O60656); assay: Inhibition of UGT1A9 (propofol glucuronidation) in human liver microsomes
T2 construct: The reaction mixture containing 0.25 mg/mL protein of HLM; tissue Corning Life Sciences 452156; host or cells: pooled human liver microsomes, 50 donors
T2 sequence (O60656 26-530): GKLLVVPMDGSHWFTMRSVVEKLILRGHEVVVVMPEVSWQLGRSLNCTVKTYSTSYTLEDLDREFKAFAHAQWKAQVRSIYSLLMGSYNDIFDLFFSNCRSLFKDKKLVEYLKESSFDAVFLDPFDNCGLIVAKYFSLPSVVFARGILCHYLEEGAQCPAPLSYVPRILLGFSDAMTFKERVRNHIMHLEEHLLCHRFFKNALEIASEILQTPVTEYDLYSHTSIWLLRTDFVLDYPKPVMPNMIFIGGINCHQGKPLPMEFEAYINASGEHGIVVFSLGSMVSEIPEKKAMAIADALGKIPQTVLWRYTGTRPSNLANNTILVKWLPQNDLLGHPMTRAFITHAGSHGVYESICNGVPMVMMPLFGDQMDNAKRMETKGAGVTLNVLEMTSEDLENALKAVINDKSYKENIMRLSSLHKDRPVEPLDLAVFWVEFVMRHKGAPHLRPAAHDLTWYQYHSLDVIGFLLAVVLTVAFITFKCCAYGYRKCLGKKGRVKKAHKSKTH
Method: as §1

Ugt2b7 = assay: Ki for Ugt2b7 in mouse liver microsomes; conditions: our unpublished data

inhibitory effect on UGT1A4 activity (UGT1A4; sauchinone up to 200 μM): negligible inhibitory effect
pIC50 (UGT1A4; substrate 40 μM trifluoperazine, mean (minimum–maximum), read-out: IC50 for inhibition of UGT1A4): < 3.70
inhibitory effect on UGT1A9 activity (UGT1A9; sauchinone up to 200 μM): negligible inhibitory effect
pIC50 (UGT1A9; substrate 100 μM propofol, mean (minimum–maximum)): < 3.70
pKi (Ugt2b7): 5.48
Structure (SMILES): C[C@@H]1[C@H]2c3cc4c(cc3O[C@@]35OCOC3=CC(=O)[C@H](C[C@H]1C)[C@@H]25)OCO4 [Sauchinone]
